System: N548 mutant cells
Test: in vitro
Details: for selectivity profile of cell death rescue in panel of htt expressing cell lines: N63, N548, FL htt cell lines, in words; for maximal fold induction: 72 h, read-out: N548 Mut: Max, maximum rescue expressed as fold over DMSO treated N548 mutant cells; for EC50: read-out: EC50 based on activity in N548 mutant cells; for N548 Mut: Max, maximum rescue expressed as fold over DMSO treated N548 mutant cells: 0.5% IFS, 39° C., 3 d
Description: Embryonic rat striatal neurons were conditionally immortalized by stably transfecting a temperature-sensitive SV40 large T-antigen (T-ag) to generate the ST14A cell line. ST14A cells proliferate at the permissive temperature (33° C.), but stop dividing at 39° C., as a result of T-ag degradation. […] As htt protein context modulates polyQ toxicity, testing these different length htt proteins could provide insight into the basis for context dependence.
ST14A Assay System: Calcein acetoxylmethyl ester (AM) (Molecular Probes, Eugene, Oreg.) is a non-fluorescent, membrane-permeable compound that is cleaved by intracellular esterases, which subsequently forms the anionic, fluorescent compound, calcein, that cannot permeate the cell membrane. […] A fluorescence viability assay, that is based on conversion of a non-fluorescent substrate (calcein AM) to a fluorescent product by nonspecific esterases in live cells, was employed to monitor cell death in wild type (wt) ST14A-Htt and mut ST14A-Htt cell lines. Cell death is indicated by a decrease in fluorescence. […] 3 μl of each compound was transferred from daughter plates to triplicate assay plates for a final assay concentration of 4 μg/ml in 0.1% DMSO (10 μM for NINDS compounds). Cells were incubated at 33° C. for 3 h to enhance attachment and then shifted to 39° C. (with 5% CO2). After 3 days (d), cells were washed 10 times with phosphate buffered saline (PBS) leaving 20 μl residual PBS per well, and 20 μl of 2 μg/ml calcein AM (Molecular probes) in PBS was added per well. […] The fluorescence intensity in each well was normalized to the median of each plate. The median normalized fluorescence of each triplicate assay wells was determined. A well with more than 50% increase in intensity above the median signal intensity was considered a “hit.”
Assay Development: An assay was developed for detecting mutant htt-induced cell death in ST14A cells in a 384-well plate format. A calcein AM-based method was used to detect cell viability, and optimized the cell number and time course for this method. […] A cell number titration was performed to determine the cell density at which calcein fluorescence was not saturated and the coefficient of variation (CV) was low (FIG. 14A-B). A low CV is critical for a high-throughput assay as it decreases noise and enhances sensitivity. […] Next, the kinetics of the fluorescence signal were determined.
Next, the serum concentrations that induce cell death in these cells were determined. Cells were seeded in decreasing serum (IFS) concentrations (5 to 0%), and cell viability was assayed after 3 d using the calcein AM assay (FIG. 14E).
A Z′ value of greater than 0 is required for a usable assay, with a maximum value of 1.0 for an ideal assay. For the assay, calcein fluorescence was used on the day of seeding to represent 100% rescue. The difference in calcein fluorescence signal on the day of seeding and after different number of days under serum deprivation was determined and used to calculate the Z′ factor. […] About 47,000 compounds were assayed in a 384-well plate format in triplicate to enhance the reliability of the primary screen.

EC50 (Rattus norvegicus) | Molecule | selectivity profile of cell death rescue in panel of htt expressing cell lines | maximal fold induction (Rattus norvegicus) | N548 Mut: Max, maximum rescue expressed as fold over DMSO treated N548 mutant cells | EC50
3 µg/mL | CC1(C)C(C=C(Cl)Cl)C1C(=O)C1=C(O)CCCC1=O (stereo not drawn) [revertin-6] | N548 mutant selective | 8 | – | –
4 µg/mL | CCCCCCN(C(=O)CCCC)C(C)c1nc2ccccc2c(=O)n1-c1ccccc1OC (stereo not drawn) [revertin-10] | N63 and N548 mutant selective | 1.5 | – | –
5 µg/mL | O=[N+]([O-])c1cc(CN2CCN(CCO)CC2)ccc1Cl [revertin-13] | – | 1.5 | – | –
– | CCOC(=O)c1cccc(NS(O)(O)c2ccc(OC)cc2)c1 [revertin-14] | N548 and FL-mutant selective | – | – | –
1 µg/mL | O=c1[nH]c2c(c(=O)[nH]1)C(c1cccc([N+](=O)[O-])c1)C=C(c1ccccc1)O2 (stereo not drawn) [revertin-15] | – | 3 | – | –
1 µg/mL | CCCN1C(=O)C(=O)c2cc(C)ccc21 [revertin-16] | – | 2 | – | –
4 µg/mL | CC(C)CC(NC(=O)OCc1ccccc1)C(=O)Oc1ccc2c(=O)c(-c3ccc([N+](=O)O)cc3)coc2c1 (stereo not drawn) [revertin-17] | – | 1.5 | – | –
4 µg/mL | COc1ccc(C(CCN(CC2CCOC(C)(C)C2)C(C)=O)c2ccccc2)cc1 (stereo not drawn) [revertin-18] | – | 1.5 | – | –
4 µg/mL | COc1cc2c3c(c1)C(C)CC(C)(C)N3C(=O)C2=O (stereo not drawn) [revertin-19] | – | 2 | – | –
8 µg/mL | COc1ccc(CN(CCC2(c3ccccc3)CCOC(C)(C)C2)C(=O)c2ccco2)cc1OC (stereo not drawn) [revertin-20] | – | 2 | – | –
4 µg/mL | Cc1ccc(-c2nc(NS(=O)(=O)c3ccc(Cl)cc3)sc2C)cc1 [revertin-21] | – | 3 | – | –
5 µg/mL | CC12CC3CC(C)(C1)CC(NC=O)(C3)C2 [revertin-26] | – | 1.5 | – | –
2 µg/mL | CC1=NN(C(N)=S)C(=O)C1NNc1ccccc1C(F)(F)F (stereo not drawn) [revertin-29] | – | 3 | – | –
2 µg/mL | CC(C)C1=CCC2C(=C1)CCC1C(C(=O)O)CCCC21C (stereo not drawn) [revertin-30] | – | 4 | – | –
2 µg/mL | O=C(NNC(C(=O)Cc1cccs1)C(F)(F)F)c1cccc(Br)c1 (stereo not drawn) [revertin-31] | – | 4 | – | –
– | Antimycin A [reference compound] | – | – | 3 fold | 5 µM
– | Nonactin [reference compound] | – | – | 2.5 fold | 0.6 µM
– | Rotenone [reference compound] | – | – | 2.5 fold | 5 µM

Molecule | EC50 (Rattus norvegicus) | selectivity profile of cell death rescue in panel of htt expressing cell lines | maximal fold induction (Rattus norvegicus) | N548 Mut: Max, maximum rescue expressed as fold over DMSO treated N548 mutant cells | EC50
O=c1cccc2n1CC1CC2CN(C2=NC=NC3c4cc(Cl)ccc4NC23)C1 (stereo not drawn) [revertin-12] | 3 µg/mL | – | 1.5 | – | –
CC(=O)N(c1ccc(Br)cc1)C1C(=O)c2ccccc2C(=O)C1N(C)C (stereo not drawn) [revertin-24] | 2 µg/mL | – | 25 | – | –
CCC1CN2CCc3cc(OC)c(OC)cc3C2CC1CC1c2cc(OC)c(OC)cc2CCN1C(=O)c1ccco1 (stereo not drawn) [revertin-25] | 3 µg/mL | – | 4 | – | –
Oc1ccc2c(c1)CC1NCCc3cc(O)c(O)c-2c31 (stereo not drawn) [revertin-27] | 4 µg/mL | – | 3 | – | –
